In brackets after ≈: the same amount, converted by molar mass.
What was measured:
Type in all cases: functional
Tetranychus cinnabarinus [1] = assay: Synergism ratio, LC50 for insecticidal activity against compound resistant Tetranychus cinnabarinus (carmine spider mite) to LC50 for insecticidal activity against compound resistant Tetranychus cinnabarinus in presence of piperonyl butoxide (PBO), diethyl maleate (DEM) and triphenyl phosphate (TPP)
Tetranychus cinnabarinus [2] = assay: Insecticidal activity against compound resistant Tetranychus cinnabarinus (carmine spider mite) in presence of piperonyl butoxide (PBO), diethyl maleate (DEM) and triphenyl phosphate (TPP)
Tetranychus cinnabarinus [3] = assay: Insecticidal activity against compound susceptible Tetranychus cinnabarinus (carmine spider mite)
Tetranychus cinnabarinus [4] = assay: Resistance ratio, LC50 for insecticidal activity against compound resistant Tetranychus cinnabarinus (carmine spider mite) in presence of piperonyl butoxide (PBO), diethyl maleate (DEM) and triphenyl phosphate (TPP) to LC50 for insecticidal activity against compound susceptible Tetranychus cinnabarinus in presence of piperonyl butoxide (PBO), diethyl maleate (DEM) and triphenyl phosphate (TPP)

CC1(C)C(C(=O)OC(C#N)c2cccc(Oc3ccccc3)c2)C1(C)C (centres undefined) [FENPROPATHRIN]
Ratio (Tetranychus cinnabarinus [1]): 1
LC50 (Tetranychus cinnabarinus [2]): 70.3 mg/mL
LC50 (Tetranychus cinnabarinus [3]): 0.714 mg/mL (≈ 2040 µM)
Ratio (Tetranychus cinnabarinus [4]): 98.5

Reference: ChEMBL document CHEMBL3044876, “The sodium channel gene in Tetranychus cinnabarinus (Boisduval): identification and expression analysis of a mutation associated with pyrethroid resistance” (2011)
